Results: US20110302823A1, “ATTRACTANT COMPOSITIONS FOR WEEVILS OF THE GENUS OT[…] USES THEREOF” (Stichting Dienst Landbouwkundig Onderzoek, priority 2010, published 2011)

Legend:
[1] = tested on: O. sulcatus antenna; assay: GC-EAD antennal response to plant headspace volatiles; design: species or system Otiorhynchus sulcatus; settings: headspace of E. fortunei 'Dart's Blanket' plants and paraffin oil extract; not quantified
Description: (§1) Volatiles were collected from a bio-active extract of Euonymus fortunei ‘Dart's Blanket’ in paraffin oil and from cuttings of mechanically damaged and O. sulcatus-damaged E. fortunei ‘Dart's Blanket’. The antennal response to these plant odours by O. sulcatus were measured by gas chromatography coupled with electroantennogram detection (GC-EAD). Compounds giving an electrophysiological response were tentatively identified by gas chromatography coupled with mass-spectrometry (GC-MS). […] A selection of plant volatiles that gave an electrophysiological reaction on the antenna were tested as single compounds and in several mixtures of two or more compounds on bioactivity using the olfactometer developed specifically to study vine weevil behaviour (see e.g., Van Tol et al., (2002) Physiological Entomology 27, 213-222). A small selection of compounds bioactive in the lab was tested under field conditions in strawberry.
A filtered 10-ml extract of E. fortunei ‘Dart's Blanket’ in paraffin oil (Merck, Uvasol) and four O. sulcatus-damaged and four mechanically damaged 20-cm long cuttings of field-grown E. fortunei ‘Dart's Blanket’ were used for headspace collection. The extract was prepared by crushing 30 g of fresh leaves from the top 15 cm part of stems with 50 ml of paraffin oil on ice. The extract was crushed for approximately 20 min followed by immediately filtering through Whatman No. 90 (diameter 15 cm) paper filter. The filtered Euonymus extract was stored cool until use. Cuttings of Euonymus were mechanically damaged with a scissor by four incisions per leaf three hours prior to headspace collection.
The O. sulcatus-damaged Euonymus cuttings were prepared by offering 10 vine weevils 16 hrs prior to headspace collecting the cuttings. Weevils were removed and cuttings washed with deionized water prior to placing in a fresh 100 ml flask with water for headspace collection. For three days the Euonymus cuttings or a daily refreshed 10-ml paraffin oil extract of Euonymus in an open Petri-dish were placed under a glass bell jar (5 l) in a growth chamber at 20° C. and under long day (L:D=16:8 hr) light conditions. Air was purified by passage through a charcoal filter and drawn at 0.2 l min^−1 through the jar. Volatiles were entrained for a total of 69 hrs. For the collecting of volatiles, Gerstel thermodesorption tubes, filled with 80 mg Tenax TA 20/35 mesh (Grace Alltech), were used. Before use, these tubes were cleaned by rinsing them with 10 ml hexane and, subsequently, flushing them for one hour at 280° C. with 20 ml min purified nitrogen. Each Tenax tube was refreshed after approximately 8 hrs. The volatiles trapped on the Tenax were washed off with 15 ml hexane. […]

[2] = tested on: O. sulcatus; assay: Laboratory (olfactometer) and field tests of attraction; type: in vivo, Otiorhynchus sulcatus
Description: as §1
Experiments were performed on a commercial strawberry field in Oregon (USA). Five different treatments (A, B, C, D and E) and one control were tested in the field. The control consisted of an empty dispenser. […] Traps and dispensers were placed in the fields and monitored for weevils' presence between May and August 2009. […] Traps and plants surrounding each trap-dispenser combination were monitored for weevils weekly. […]

[3] = tested on: O. sulcatus; assay: Field experiment: attraction of weevils to odor dispensers in a strawberry field; type: in vivo, Otiorhynchus sulcatus; settings: for number of weevils per replicate (O. sulcatus caught): total of whole season, back-transformed mean, 0.4 ml of each compound per dispenser, control 4.3
Description: A selection of single plant compounds (A=(Z)-2-pentenol and B=(E)-2-hexenol) and combinations of plant compounds (C=A+B in ratio 1:1, D=A+methyl eugenol in ratio 1:1, and E=A+B+methyl eugenol in ratio 1:1:1) were tested in a strawberry field (Fragaria×ananassa ‘Tillamook’) for attraction of O. sulcatus. Choice of compounds and mixtures were based on identification of EAD-active compounds from headspace of weevil-damaged E. fortunei ‘Dart's Blanket’ plants and paraffin oil extract of the same Euonymus plant species combined with bioassay results with the EAD-active compounds alone and in several mixtures (Van Tol, unpublished). The compound (Z)-2-pentenol (purity 95%) was obtained from Bedoukian (Danbury, Conn., USA), (E)-2-hexenol (purity >96%) from Acros (Geel, Belgium) and methyl eugenol (purity >98%) from Sigma-Aldrich (St. Louis, Mo., USA). All chemicals were used without further purification. Single compounds and mixtures were introduced in dispensers prior to use and sealed. In each dispenser 0.4 ml of each compound was present.
Plant volatile dispensers were made of 1.5 ml LDPE Pasteur pipettes (Labo Scientific, Ede, the Netherlands). The compounds to be tested were introduced into the pipette, the tip of which was then sealed by heat. Prior to use, the tip of the pipette was cut off at 1 cm above the reservoir portion. […] The dispenser is a simple and cheap existing design which enables a high release profile especially for larger quantities of plant volatiles. […]
Experiments were performed on a commercial strawberry field in Oregon (USA). […] Traps and dispensers were placed in the fields and monitored for weevils' presence between May and August 2009. […] Traps and plants surrounding each trap-dispenser combination were monitored for weevils weekly. […]

| Compound | antennal (EAD) response [1] | attractive to O. sulcatus in laboratory and field tests (in words) [2] | attraction of O. sulcatus in strawberry (in words) [3] | number of weevils per replicate (O. sulcatus caught) [3] |
| --- | --- | --- | --- | --- |
| CC/C=C\CO [Treatment A, (Z)-2-pentenol] | EAD-active | attractive | attractive | 11.3 |
| C=C/C=C(\C)CCC=C(C)C [DMNT] | EAD-positive |  |  |  |
| CC/C=C\CCO [(Z)-3-hexenol] | EAD-active |  |  |  |
| CCC/C=C/CO [Treatment B, (E)-2-hexenol] | EAD-active |  |  | 4.3 |
